In US20150329467A1, “FLUORINE ATOM-CONTAINING PHENOL COMPOUND” (FUJIFILM CORPORATION, priority 2012, published 2015):
“Also recorded” adds a separate entry of the source.

Experiment: Solubility check: coated film of Cytop CTL-809M fluororesin solution observed by optical microscope for bleed-out or undissolved compound
Assay type: physicochemical
Settings: compound at 0.3 wt % with respect to Cytop CTL-809M in perfluorotributylamine/1,1,1,3,3,3-hexafluoropropan-2-ol/Cytop CTL-809M=91/5/4 (parts by weight); film 1.5 μm on glass, dried
Description: To a mixed solution of perfluorotributylamine/1,1,1,3,3,3-hexafluoropropan-2-ol/Cytop CTL-809M (manufactured by Asahi Glass Co., Ltd.)=91/5/4 (parts by weight), was added the compound represented by formula (1) according to the invention (any of Compounds 1-1 to 1-8) or Comparative Compound C-1 or C-2 as shown below in an amount of 0.3 wt % with respect to the Cytop CTL-809M. Thereafter, the mixed solution was applied onto a glass substrate to a film thickness of 1.5 μm and dried.

Structure (SMILES) | Solubility
CC(C)(C)c1cc(CCC(=O)OCC(F)(F)C(F)(F)C(F)(F)C(F)(F)C(F)(F)C(F)(F)C(F)(F)C(F)(F)C(F)(F)F)cc(C(C)(C)C)c1O [Compound 1-1] | Compatible
CC(C)(C)c1cc(CCC(=O)OCC(O)CC(F)(F)C(F)(F)C(F)(F)C(F)(F)C(F)(F)C(F)(F)C(F)(F)C(F)(F)F)cc(C(C)(C)C)c1O (stereo not shown) [Compound 1-2] | Compatible
Cc1cc(CCC(=O)OCC(F)(F)C(F)(F)C(F)(F)C(F)(F)C(F)(F)C(F)(F)C(F)(F)C(F)(F)C(F)(F)F)cc(C(C)(C)C)c1O [Compound 1-3] | Compatible
CC(C)(C)c1cc(CCC(=O)OCC(F)(F)C(F)(F)C(F)(F)C(F)(F)C(F)(F)C(F)(F)C(F)(F)C(F)(F)F)cc(C(C)(C)C)c1O [Compound 1-4] | Compatible
CC(C)(C)c1cc(CCC(=O)OCCC(F)(F)C(F)(F)C(F)(F)C(F)(F)C(F)(F)C(F)(F)F)cc(C(C)(C)C)c1O [Compound 1-5] | Compatible
Cc1cc(CCC(=O)OCC(F)(F)C(F)(F)C(F)(F)C(F)(F)C(F)(F)C(F)(F)C(F)(F)C(F)(F)C(F)(F)F)cc(C)c1O [Compound 1-6] | Compatible
CC(C)(C)c1cc(CCC(=O)OC(CO)CC(F)(F)C(F)(F)C(F)(F)C(F)(F)C(F)(F)C(F)(F)F)cc(C(C)(C)C)c1O (stereo not shown) [Compound 1-7] | Compatible
Cc1cc(CCC(=O)OCC(F)(F)C(F)(F)C(F)(F)C(F)(F)C(F)(F)C(F)(F)C(F)(F)C(F)(F)C(F)(F)C(F)(F)F)cc(C)c1O [Compound 1-8] | Compatible
CCCCCCCCCCOC(=O)CCc1cc(C(C)(C)C)c(O)c(C(C)(C)C)c1 [Compound C-1, reference compound] | remained partially undissolved; also recorded: Remain partially
CC(C)(C)c1cc(CCC(=O)OCC(O)CC(F)(F)C(F)(F)C(F)(F)F)cc(C(C)(C)C)c1O (stereo not shown) [Compound C-2, reference compound] | bled out on the resin surface; also recorded: Bleed out (a compound which bleeds out is denoted by “Bleed out,”)
